# Reference: patent US9902783B2, “Antibodies and pharmaceutical compositions containing same useful for inhibiting activity of metalloproteins” (Yeda Research and Development Co. Ltd., priority 2007, dated 2018)
# B1: 15E12: monoclonal antibody, IgG2a, raised against the hapten ZnTCPP (antibody)
# heavy: EGPGLVAPSQSLSITCTVSGISLSSYDISWIRQPPGKGLEWLGVMETWSGGGTENYNSAFMETSRLSISKDNSKRQVFLNMETNSVQIDDTATYYCIGRLHYYGYWFLDVWDQG
# light: EMETTQTPLSLPVSLGDQASISCRSSQSIVQSNGNTYLDWYLQKPGQSPKLLIYKVSNERFSGVPDRFSGSGSGTDFTLKISRVEADDLGVYYCFQGSHVPYTFGGG
# modifications: 15E12 mAb heavy chain; 15E12 mAb light chain
# notes: monoclonal antibody, IgG2a, raised against the hapten ZnTCPP
# What was measured:
# [1] = system: metastasis; details: phase III, advanced cancer patients; cited from earlier work
# [2] = patients; cited from earlier work
# [3] = system: cell surface gelatinolytic activity of HT1080 cells; assay: in situ zymography with DQ-gelatin; type: cell-based, human; details: 15 μM SB-3CT
# Procedure: To localize net gelatinolytic activity of MMPs by in situ zymography, fluorescein isothiocyanate-labeled DQ gelatin that is intramolecularly quenched (Molecular Probes) was used as a substrate for degradation by gelatinases. Proteolysis by gelatinases yields cleaved fluorescein isothiocyanate-gelatin peptides and the localization of this fluorescence indicates the sites of net gelatinolytic activity. Briefly, Human fibrosarcoma HT1080 cells (which produce MMP-2, MMP-9 and MT1-MMP) were plated on 12-mm coverslips. […] Untreated cells served as negative control for this experiment. Cells were washed with PBS and then incubated with zymography reaction buffer (0.05 M Tris-HCl, 0.15 M NaCl, 5 mM CaCl2, and 0.2 mM NaN3, pH 7.6, the high concentration of azide prevented the gelatin from being phagocytosed and thus allowing cell surface gelatinolytic activity to occur) containing 60 ug/ml DQ gelatin at 37° C. overnight. […] At the end of the incubation period, without fixation or further washes, gelatinolytic activity of the MMPs was localized and photographed by fluorescence microscopy and images were acquired by Spot digital camera.
# To confirm the inhibitory activity of anti CoTCPP mAb at cellular level, the effect of the antibody was examined on gelatinolytic activity of human fibrosarcoma HT1080 cells that constitutively secrete MMP-2 and 9 by in situ zymography. To localize gelatinolytic activity of MMPs by in situ zymography, fluorescein isothiocyanate-labeled gelatin that is intramolecularly quenched (DQ-gelatin) was used as substrate. Proteolysis by gelatinases yields cleaved fluorescein isothiocyanate-gelatin peptides and the localization of this fluorescence indicates the sites of net gelatinolytic activity.
# [4] = target: MT1-MMP (Homo sapiens, UniProt P50281); details: cited from earlier work
# [5] = peptide-based hydroxamate; cited from earlier work
# [6] = system: MMP-2; assay: kinetic assay with fluorogenic peptide substrate, MMP-2; type: biochemical, human
# [7] = target: TACE (ADAM-17) (Homo sapiens, UniProt P78536); assay: kinetic assay with fluorogenic peptide QF-45, TACE; type: biochemical; details: Table 4
# Chain of TACE (ADAM-17) (P78536 215-824, species assumed): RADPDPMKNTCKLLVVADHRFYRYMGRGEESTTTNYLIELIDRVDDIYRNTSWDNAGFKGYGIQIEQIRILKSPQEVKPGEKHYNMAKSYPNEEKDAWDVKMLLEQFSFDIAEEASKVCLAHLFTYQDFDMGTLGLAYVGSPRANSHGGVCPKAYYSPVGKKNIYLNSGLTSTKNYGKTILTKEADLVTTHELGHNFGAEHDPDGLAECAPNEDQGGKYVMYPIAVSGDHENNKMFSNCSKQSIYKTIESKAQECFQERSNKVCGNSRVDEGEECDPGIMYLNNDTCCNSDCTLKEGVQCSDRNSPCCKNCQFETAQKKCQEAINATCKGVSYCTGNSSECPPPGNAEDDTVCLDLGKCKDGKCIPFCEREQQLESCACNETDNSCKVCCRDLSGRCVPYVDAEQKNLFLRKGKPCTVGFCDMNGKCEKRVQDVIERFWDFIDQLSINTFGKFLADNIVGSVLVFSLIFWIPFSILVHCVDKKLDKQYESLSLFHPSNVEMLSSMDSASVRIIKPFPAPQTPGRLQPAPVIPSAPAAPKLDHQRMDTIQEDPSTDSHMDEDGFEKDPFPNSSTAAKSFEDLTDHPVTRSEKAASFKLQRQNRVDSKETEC
# [8] = target: MT1-MMP (MMP-14) (Homo sapiens, UniProt P50281); assay: kinetic assay with fluorogenic peptide substrate, MT1-MMP; type: biochemical; details: Table 4
# [9] = competitive ELISA, affinity of mAbs toward their immunizing hapten; details: concentration of soluble hapten for 50% binding
# Procedure: Supernatants of the growing hybridomas were screened for antibodies reactive with ZnTCPP, CoTCPP or Imisdp using direct ELISA in which respective hapten-BSA (3 μg/ml in PBS) was coated to Nunc maxisorp plates. The coating was performed at 4° C. overnight and incubation with antibodies at 20° C. for 1 h. HRP-conjugated anti-mouse mAb (Sigma) was used as the secondary antibody and 2,2′-azino-bis (3-ethylbenzthiazoline-6-sulphonic acid, ABTS, Sigma) was used as substrate. PBS containing 0.005% v/v Tween 20 (PBST) was used as washing reagent. The dilution buffer was PBS. A602 was recorded by microplate reader in […]luor Plus spectrometer (Tecan, Austria). As control supernatants were incubated with BSA coated plates in the same manner Absorbance values above 0.5 millioptical density were considered as positive.
# Different dilutions of hybridoma supernatant were incubated with hapten-BSA coated plates following the steps described earlier. Titration curve was plotted and the titer dilution was determined at 50% of binding. Supernatants diluted to the titer concentration were preincubated with soluble ZnTCPP, CoTCPP or Imisdp compounds for 30 minutes and then transferred to hapten-coated microtiter plates following the steps described previously. The estimated dissociation constant was the concentration of soluble hapten required to attain 50% binding.
# [10] = system: MMP-9; assay: kinetic assay with fluorogenic peptide substrate, MMP-9; type: biochemical, human
# Chain of MMP-9 (P14780 107-444 limits assumed): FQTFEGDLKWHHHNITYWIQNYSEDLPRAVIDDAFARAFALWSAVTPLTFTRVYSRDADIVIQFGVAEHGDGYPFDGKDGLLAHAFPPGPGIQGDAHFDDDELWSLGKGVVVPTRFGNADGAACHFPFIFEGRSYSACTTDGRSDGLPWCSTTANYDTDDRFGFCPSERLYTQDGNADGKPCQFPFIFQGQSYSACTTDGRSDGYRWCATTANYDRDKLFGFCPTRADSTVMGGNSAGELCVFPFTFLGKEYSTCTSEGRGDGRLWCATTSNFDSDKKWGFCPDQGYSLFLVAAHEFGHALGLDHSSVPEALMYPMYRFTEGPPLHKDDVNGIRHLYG
molecule,measurement,setting,value
O=C(C[C@H](CSc1ccccc1)C(=O)O)c1ccc(-c2ccc(Cl)cc2)cc1 [BAY12-9566],clinical efficacy in inhibiting metastasis,[1],no clinical efficacy
same,severe side effects,[2],"liver abnormalities, anemia, shoulder and back pain, thrombocytopenia, nausea, fatigue, diarrhea and deep vein thrombosis"
COc1ccc(S(=O)(=O)N(Cc2cccnc2)[C@@H](C(=O)NO)C(C)C)cc1 [CGS27023A],severe side effects,[2],widespread maculopapular rash
"O=S(=O)(CC1CS1)c1ccc(Oc2ccccc2)cc1 (stereo not drawn) [SB-3CT, reference compound]",cell surface gelatinolytic activity,[3],inhibition observed
same,Ki,[4],0.11 µM
CNC(=O)[C@H](Cc1ccccc1)NC(=O)[C@H](CC(C)C)[C@H](CSc1cccs1)C(=O)NO [batimastat],metabolic stability and oral bioavailability,[5],low
CNC(=O)[C@@H](NC(=O)[C@H](CC(C)C)[C@H](O)C(=O)NO)C(C)(C)C [marimastat],clinical efficacy in inhibiting metastasis,[1],no clinical efficacy
same,severe side effects,[2],muscoloskeletal problems
B1,IC50,[6]; Table 4,> 30 µM
same,inhibition of proteolytic activity of MMP-2,[6]; continuous fluorometric assay,did not show inhibitory effect
same,IC50,[7],> 30 µM
same,IC50,[8],> 30 µM
same,Kd,[9],0.01 µM
same,IC50,[10]; Table 4,> 30 µM
same,inhibition of proteolytic activity of MMP-9,[10]; continuous fluorometric assay,did not show inhibitory effect
